Measurements taken from PMC4899718, “Establishing Virulence Associated Polyphosphate Kinase 2 as a drug target for Mycobacterium tuberculosis” (Scientific Reports, 2016).

Legend:
PPK-2 (MBP-PPK-2) [1] = target: T1, PPK-2 (MBP-PPK-2) (Mycobacterium tuberculosis, UniProt O05877); assay: luciferase-based ATP synthesis endpoint assay; assay type: biochemical
T1 construct: gene ppk2

PPK-2 (MBP-PPK-2) [2] = target: T1, PPK-2 (MBP-PPK-2)

T1 sequence (O05877 whole entry, looked up): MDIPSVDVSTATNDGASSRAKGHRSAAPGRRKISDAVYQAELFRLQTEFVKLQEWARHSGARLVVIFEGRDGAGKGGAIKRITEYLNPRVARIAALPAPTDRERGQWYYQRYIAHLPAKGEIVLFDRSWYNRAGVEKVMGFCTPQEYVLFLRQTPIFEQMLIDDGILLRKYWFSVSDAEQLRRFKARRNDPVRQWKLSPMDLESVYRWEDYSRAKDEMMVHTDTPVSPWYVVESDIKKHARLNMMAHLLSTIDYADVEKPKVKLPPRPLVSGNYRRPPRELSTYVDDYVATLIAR

Structure (SMILES) | inhibition at 100 µM (PPK-2 (MBP-PPK-2) [1]) [%] | luciferase-based ATP quantification (PPK-2 (MBP-PPK-2) [2]) | also measured
CCOc1ccc(Nc2c3ccccc3nc3ccccc23)cc1 [NSC-30205] | > 80 | – | –
Nc1ncnc2c1ncn2[C@@H]1O[C@H](COP(=O)(O)OP(=O)(O)O)[C@@H](O)[C@H]1O [ADP] | – | ATP synthetic activity of PPK-2 increased in the presence of both ADP and enzyme | –
O=c1cc2oc3cc(O)c(O)cc3c(-c3ccccc3O)c-2cc1O [NSC-9037] | > 80 | – | –
O=c1c(O)cccc2cc(O)c(O)c(O)c12 [NSC-35676] | – | – | % inhibition at 100 μM (PPK-2 (MBP-PPK-2) [1]; PolyP17 10 μM as phosphate donor, 10 mM MgCl2, pH 7.4, 37 °C, 10 min pre-incubation, luciferase counter-screened): > 80%
CC1Oc2cc3c(-c4c(O)cc(O)c5c(O)c6c(cc45)OC(C)C(C)C6=O)c(O)cc(O)c3c(O)c2C(=O)C1C (stereo not drawn) [NSC-345647] | > 80 | – | –
O=P(O)(O)OP(=O)(O)OP(=O)(O)O [PolyP3] | – | MBP-PPK-2 could also utilize short chain polyphosphates, PolyP3 as the phosphate donor | –
